Assay results taken from article PMC11364543, “Molecular recognition of an odorant by the murine trace amine-associated receptor TAAR7f” (Nature Communications, 2024).

Target: T1, mTAAR7f (Mus musculus, UniProt Q5QD08)
T1 construct: gene Taar7f; full length; N-terminal signal peptide, twin-strep and SNAP-tag, C-terminal nanoluc; BRET partner NES-Venus-mini-Gs (reporter)
T1 sequence (Q5QD08 1-358): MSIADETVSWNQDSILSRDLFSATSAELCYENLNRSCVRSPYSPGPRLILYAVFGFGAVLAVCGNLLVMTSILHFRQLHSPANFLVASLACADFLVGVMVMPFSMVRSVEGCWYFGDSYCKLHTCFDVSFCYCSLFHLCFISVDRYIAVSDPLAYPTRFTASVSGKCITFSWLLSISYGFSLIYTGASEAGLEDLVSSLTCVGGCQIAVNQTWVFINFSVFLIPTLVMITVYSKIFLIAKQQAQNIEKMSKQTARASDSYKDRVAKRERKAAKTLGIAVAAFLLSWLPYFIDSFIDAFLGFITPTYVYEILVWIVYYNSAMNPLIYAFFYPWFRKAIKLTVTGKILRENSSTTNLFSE
Assay: BRET mini-Gs recruitment (nanoluc receptor, NES-Venus-mGs), concentration-response
Assay type: cell-based
Text: BRET mini-Gs recruitment (nanoluc receptor, NES-Venus-mGs), concentration-response on mTAAR7f | BRET ratios measured for increasing concentrations of the agonist DMCHA for the wild-type mTAAR7f

CN(C)C1CCCCC1 [N,N-dimethylcyclohexylamine]
EC50: 8.51 µM
